Results on five compounds are retold here after article PMC6838151 (Scientific Reports, 2019).

In brackets after ≈: the same amount, converted by molar mass. Read-outs that look alike come from different tables or passages of the source. Some results are limits rather than exact numbers.

In one series the test system is S. cerevisiae erg6Δ. Nature of the series: MIC50 growth inhibition, S. cerevisiae erg6Δ deletion mutant, 48 h. It counts as cell-based, Saccharomyces cerevisiae. The source says: (§1) For the preliminary studies of the biological activity of the studied compound we chose S. cerevisiae, which is generally considered a non-pathogenic organism, but currently recognized as a potentially important agent causing opportunistic infections against immunocompromised patients. In order to assess whether all the Ke derivatives share the mechanism of action with the parent compound, or if they might present different or additional modes of action, the inhibitory concentration MIC50 (Table 2) was determined on the basis of the dose-response curves (Fig. S11 in ESI) in a 48 h assay against S. cerevisiae wt strain BY4741 and the deletion mutant erg6Δ, which lacks the gene coding for the S-adenosylmethionine: 24-methyltransferase[52], accumulating cholesta-5,7,24-trienol and zymosterol instead of ergosterol. There are several studies reporting that the ERG6 gene deletion may increase the resistance of S. cerevisiae cells to azole compounds[54]–[56]. […] The value determined for the wt strain is in very good agreement with previous studies carried out under similar condition (48 h, 30 °C) (e.g.[57]).
(§2) The following strains of S. cerevisiae were used in this study: BY4741 (wild type towards erg6Δ, ACC Y00000; MATa; his3Δ1; leu2Δ0; met15Δ0; ura3Δ0), erg6Δ (ACC Y00568; BY4741 isogenic with YML008c::kanMX4), W303 (wild type towards AD1-8; MATα; leu2-3,112 trp1-1 can1-100 ura3-1 ade2-1 his3-11,15 AD1-8 (W303 isogenic with pdr1-3, ura3, his1, yor1∆::hisG, snq2∆::hisG, pdr5∆::hisG, pdr10∆::hisG, pdr11∆:: hisG, ycf1∆::hisG, pdr3∆::hisG, pdr15∆::hisG). BY4741 and erg6Δ were acquired from EUROSCARF, Frankfurt, Germany; W303 and AD1-8 were kind gifts from Prof. A. Goffeau, Chaire Internationale Blaise Pascal, Lab. Genet. Mol., École Normale Supérieure, Paris, and Prof. M. Ghislain, Université Catholique de Louvain, Faculté des sciences Agronomiques, Louvain-la-Neuve, Belgium. Visible turbid overnight cultures of S. cerevisiae strains were prepared and diluted to A600 ≈ 0.1 in fresh Yeast Extract – Peptone - Dextrose (YPD) medium. The cultures were transferred to 96 microtiter well plates containing aliquots of serially diluted antifungal drugs (Ke and its derivatives: KeP, KeOP, KeSP, KeSeP), prepared from DMS stock solutions and drug-free controls. The yeast cultures were statically incubated at 30 °C for 48 hours with compounds[88]. The dose-response curves were analysed with GraphPad Prism 5 software (San Diego, USA) or a microplate reader ASYS UVM (Biogenet). All values presented are the mean of at least three independent experiments.

For the next series, the system named is C. albicans CAF2-1. Put plainly: microbe, parasite or virus in culture. In kind it is cell-based, Candida albicans. Conditions: for effect of combination with higher Flc concentrations: KeP (0.39 uM) / KeOP (1.56 uM) combined with 3.25 and 6.25 uM Flc, CAF2-1. As for the experimental part: The synergistic effects of KeOP/KeP with Flc were determined using the M27-A3 method with modifications. Flc and KeOP/KeP stock solutions in DMSO (10 mM) were (alone and simultaneously) diluted in RPMI-1640 medium to obtain final concentrations of^1/8; ^1/4; ^1/2; 1 × MIC50 towards C. albicans CAF2-1 strain in microdilution sterile plates (Sarstedt). Statistical significance analysis was performed using Student’s t-test ([…], unpaired) comparing viability in the presence of corresponding Flc concentrations with/without KeOP/KeP.

For series [1], the system named is hASCs (p53, p21, BAX, BCL-2 transcripts). Nature of the series: Apoptosis-related transcripts by qRT-PCR in hASCs. It counts as cell-based, human. Conditions: 20 µM, 24 h; for expression of p53 gene / expression of p21 transcript / relative expression level of BAX / relative expression level of BCL-2: hASCs; for expression of p53 gene: vs control cells; for expression of p21 transcript: vs control group, p < 0.001; for relative expression level of BAX / relative expression level of BCL-2: vs control, differences not significant. As for the experimental part: Cellular apoptosis level was assessed using quantitative reverse transcriptase real-time polymerase chain reaction (qRT-PCR). First, the cells were seeded in a 24-well plate at a concentration of 3 × 10^4 cells/well in DMEM with Nutrient F-12 Ham complete medium and left in the CO2 incubator overnight to allow cells to attach. […] After 24 h of challenge with the compounds, the cells were homogenized with TRI Reagent and total RNA was isolated by phenol-chloroform extraction and ethanol precipitation. RNA purity and quantity were measured at a wavelength of 260 and 280 nm (Epoch, Biotek). Genomic DNA was removed with DNase I, RNase-free ([…]) (Thermo Scientific, Poland) and cDNA was synthesized using RevertAid First Strand cDNA Synthesis Kit (Thermo Scientific, Poland). 150 ng of total RNA served as a template for a single reaction using T100 Thermo Cycler (Bio-Rad, USA). The expression levels of p53 tumor suppressor, cyclin dependent kinase inhibitor 1A (p21), apoptosis regulators BAX and BCL-2 were determined. qRT-PCR was performed on a CFX Connect^TM Real-Time PCR Detection System (Bio-Rad) using SensiFast SYBR & Fluorescein Kit (Bioline, Cincinnati, OH, USA) and primer pairs as listed in Table S4 in ESI. 500 nM of specific primers and 1 µL of cDNA in a 10 µL final volume were applied in each reaction. The quantitative expression of the genes was calculated by the 2^−ΔΔCT method using GAPDH as housekeeping genes.
Statistical analysis was performed with GraphPad Prism 5 software (San Diego, USA). All data values are presented as mean ± SD, measured in triplicates or more. Statistical significance between groups was determined using two-way ANOVA grouped analysis.
For orientation: In qPCR the cycle at which signal appears reflects the starting amount.

For series [2], the system named is S. cerevisiae WT (BY4741). Nature of the series: MIC50 growth inhibition, S. cerevisiae wt BY4741, 48 h. In kind it is cell-based, Saccharomyces cerevisiae. Conditions: YPD, 30 °C.
Source text: as §1, §2

The subject of a further series is hASCs. Nature of the series: Confocal imaging of mitochondrial network (MitoRed) and F-actin (Phalloidin Atto 590) in hASCs. Conditions: 20 µM, 24 h. In kind it is cell-based, human. As to the method:
The mitochondrial network was visualized using MitoRed staining. After 24-hours treatment with either Ke, KeP or KeOP, the media were removed and replaced with MitoRed dye in 1:1000 dilution in fresh complete media. Cells were incubated for 30 minutes at 37 °C, then washed with Phosphate Buffered Saline (PBS), fixed with 4% paraformaldehyde (PFA) solution, washed three times and nuclei were counterstained with diamidino-2-phenylindole (DAPI).
In order to perform F-actin imaging, cells were fixed with 4% PFA solution, washed with PBS and then permeabilized using 0.5% TX-100 (incubation 15 minutes, room temperature). The cells were rinsed and incubated with Phalloidin-Atto 590 solution in PBS (dilution 1:1000) at 37 °C for 30 minutes in the dark. After washing, the cells were counterstained with DAPI.
Cells were observed and images were taken using confocal microscopy performed with a Leica TCS-SP8 laser scanning confocal microscope. Data were further processed with the use of ImageJ software.

The next series has as its system HepaRG cells. To be noted: cited from earlier work.
The mark [3] stands for this setting: Candida albicans, CAF21, read-out: Viability of C. albicans CAF2-1.
The mark [4] stands for this setting: Saccharomyces cerevisiae, read-out: MIC50.
Where [5] appears, read: S. cerevisiae erg6Δ, YPD, 30 °C.

In the case of `O=P(CN1CCN(c2ccc(OC[C@H]3CO[C@](Cn4ccnc4)(c4ccc(Cl)cc4Cl)O3)cc2)CC1)(c1ccccc1)c1ccccc1` (racemic) [KeOP, Ph2P(O)CH2-Ke], the MIC50 against S. cerevisiae erg6Δ (Saccharomyces cerevisiae) was 0.00482 µM (≈ 0.00339 µg/mL). Further, in the series with C. albicans CAF2-1 (setting [3]), the viability at 0.1 µM came to 102 ± 2.22%, the viability at 0.2 µM turned out to be 93.9 ± 7.22% and the viability at 0.39 µM amounted to 91.2 ± 10.7%. The “effect of combination with higher Flc concentrations” value in the series on C. albicans CAF2-1 was “fungicidal effect”. For the same compound, in series [1], the “induction of apoptosis in hASC cultures” value is listed as “did not induce apoptosis”, the “expression of p53 gene” value is “no significant changes”, the “expression of p21 transcript” value was “elevated expression” and the “relative expression level of BAX” value is reported as “higher”. In series [1], the “relative expression level of BCL-2” value was “higher”. Further, in series [2] (setting [4]), the MIC50 is 0.00416 µM (≈ 0.00293 µg/mL).

Take `Clc1ccc([C@@]2(Cn3ccnc3)OC[C@H](COc3ccc(N4CCN(CP(c5ccccc5)c5ccccc5)CC4)cc3)O2)c(Cl)c1` (racemic) [KeP, Ph2PCH2-Ke]: the MIC50 in the series with S. cerevisiae erg6Δ (Saccharomyces cerevisiae) is 0.654 µM (≈ 0.45 µg/mL). In the series on hASCs, the “mitochondrial membrane potential (MitoRed staining)” value is “lowest mitochondrial membrane potential” and the “number of mitochondria (MitoRed staining)” value is listed as “lowest number of mitochondria”. Besides, the “MIC50 of Flc in combination” value with C. albicans CAF2-1 (C. albicans CAF2-1, with KeP (0.39 uM), reduced from 6.25 uM) is 1.56 µM. Moreover, in the series with C. albicans CAF2-1 (setting [3]), the viability at 0.39 µM worked out at 115 ± 9.06%, the viability at 0.78 µM was 102 ± 1.98% and the viability at 1.56 µM is 96.8 ± 3.21%. For the same compound, the “effect of combination with higher Flc concentrations” value with C. albicans CAF2-1 is “fungicidal effect”. Besides, in series [1], the “induction of apoptosis in hASC cultures” value was “did not induce apoptosis”, the “expression of p53 gene” value is “no significant changes”, the “expression of p21 transcript” value was “elevated expression” and the “relative expression level of BAX” value is “higher”. Moreover, the “relative expression level of BCL-2” value in series [1] is given as “higher”. Further, in series [2] (setting [4]), the MIC50 stood at 9.02 µM (≈ 6.2 µg/mL).

Regarding `CC(=O)N1CCN(c2ccc(OCC3COC(Cn4ccnc4)(c4ccc(Cl)cc4Cl)O3)cc2)CC1` (centres unmarked) [Ke, ketoconazole, reference compound], in the series with S. cerevisiae erg6Δ (setting [5]), the MIC50 entry is listed as “no activity”. In addition, in the series with S. cerevisiae erg6Δ (Saccharomyces cerevisiae), the MIC50 is over 200 µM. In series [1], the “induction of apoptosis in hASC cultures” value was “did not induce apoptosis”, the “expression of p53 gene” value is recorded as “no significant changes” and the “expression of p21 transcript” value is listed as “elevated expression”. The MIC50 in series [2] (setting [4]) was 0.865 µM (≈ 0.46 µg/mL). Also, in the series on HepaRG cells, the “concentration at which cytotoxicity started” value is reported as 100 µM.

Turning to `S=P(CN1CCN(c2ccc(OC[C@H]3CO[C@](Cn4ccnc4)(c4ccc(Cl)cc4Cl)O3)cc2)CC1)(c1ccccc1)c1ccccc1` [KeSP, Ph2P(S)CH2-Ke], the MIC50 entry in the series with S. cerevisiae erg6Δ (setting [5]) was “inactive”; in the series on S. cerevisiae erg6Δ (Saccharomyces cerevisiae) it was over 200 µM; in series [2] (setting [4]), over 200 µM; in series [2], “inactive”.

Consider `Clc1ccc([C@@]2(Cn3ccnc3)OC[C@H](COc3ccc(N4CCN(CP(=[Se])(c5ccccc5)c5ccccc5)CC4)cc3)O2)c(Cl)c1` [KeSeP, Ph2P(Se)CH2-Ke], for which the MIC50 was found to be 0.578 µM (≈ 0.443 µg/mL) with S. cerevisiae erg6Δ (Saccharomyces cerevisiae) and 1.24 µM (≈ 0.954 µg/mL) in series [2] (setting [4]).

A word on the MIC50: it is the lowest concentration that inhibits either 50% of growth or 50% of the strains tested, depending on the study. For orientation: viability means a read-out of living cells in per cent, often relative to untreated cells.
